# Laboratory results as given in patent US20260070945A1, “MACROCYCLIC IMMUNOMODULATORS” (Bristol-Myers Squibb Company, priority 2022, published 2026).
# pIC50: −log10 of the molar value. *1 amine or outer side, *2 acyl side, *3 side chain or, on linkers, in order; H or OH if unused. Where a SMILES comes first, the peptide text is derived from it. Bridges are numbered along the chain shown (N, C = ends). [ ]: non-standard residue; d: D form. The star is where a group is joined. ξ: configuration not given here. X10 = O=C(O)COc1ccc(C[C@H](CC(=O)C[*:2])C(=O)[*:1])cc1; Phe(3-CF3) = N[C@@H](Cc1cccc(C(F)(F)F)c1)C(=O)O; Phe(4-COOH) = N[C@@H](Cc1ccc(C(=O)O)cc1)C(=O)O; Bip = N[C@@H](Cc1ccc(-c2ccccc2)cc1)C(=O)O; NH(CH2)14COOH = O=C(O)CCCCCCCCCCCCCCN*; Phe(3-Me) = Cc1cccc(C[C@H](N)C(=O)O)c1; γGlu = O=C(O)[C@H](CCC(=O)[*:2])N[*:1]; NH(CH2)12COOH = O=C(O)CCCCCCCCCCCCN*; Val(3-OH) = CC(C)(O)[C@H](N)C(=O)O; NHhexadecyl = CCCCCCCCCCCCCCCCN*; Cha = N[C@@H](CC1CCCCC1)C(=O)O; Thr(3ξ) = CC(O)[C@H](N)C(=O)O; X9 = NC(=O)CCCCCCCCCCCCCCN*; dDab = NCC[C@@H](N)C(=O)O; Carboxymethyl = O=C(O)C*; NMeA = CN[C@@H](C)C(=O)O; Dab = NCC[C@H](N)C(=O)O; AEEA = NCCOCCOCC(=O)O; ξC = NC(CS)C(=O)O
# Target: T1, PD-1/PD-L1 interaction (PE-labeled human PD-L1-Ig binding to Jurkat cell line over-expressing human PD-1) (Homo sapiens, UniProt Q15116)
# T1 construct: expressed in transfected cells; host or cells: Jurkat
# Assay: Jurkat-PD-1 Cell Binding High-Content Screening Assay (CBA)
# Settings: PE-labeled PD-L1-Ig 20 nM final, Jurkat-hPD-1 cells; read-out: Jurkat HPD1 PDL1 IC50
# Outline: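 Binding of 20 nM (final) PE-tagged PD-L1-Ig to compound-pretreated Jurkat-hPD-1 cells was measured by high-content imaging after 1 h. Pretreatment ran 2 h at 37 °C in DMEM with 10% fetal calf serum.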
# T1 sequence (Q15116 25-288): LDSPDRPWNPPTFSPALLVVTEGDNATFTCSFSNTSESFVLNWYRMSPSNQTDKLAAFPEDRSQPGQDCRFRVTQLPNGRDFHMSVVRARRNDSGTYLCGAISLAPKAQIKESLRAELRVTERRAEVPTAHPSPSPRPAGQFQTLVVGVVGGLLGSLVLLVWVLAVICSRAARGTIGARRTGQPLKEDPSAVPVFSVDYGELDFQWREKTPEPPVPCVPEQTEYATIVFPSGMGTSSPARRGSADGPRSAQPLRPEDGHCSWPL
row,Compound,pIC50
1,CC(=O)NCCCC[C@@H]1NC(=O)[C@H](C(C)(C)O)NC(=O)[C@H](CC2CCCCC2)NC(=O)[C@H](CCN)NC(=O)[C@@H](CC(C)C)NC(=O)[C@H](C)N(C)C(=O)[C@H](CCCNC(=N)N)NC(=O)[C@H](Cc2ccc(-c3ccccc3)cc2)NC(=O)[C@H](Cc2ccc(C(=O)O)cc2)NC(=O)[C@H](Cc2cccc(C(F)(F)F)c2)NC(=O)[C@H](CC(=O)O)NC(=O)[C@H](Cc2ccc(OCC(=O)O)cc2)NC(=O)[C@H](Cc2ccc(OCC(=O)O)cc2)NC(=O)CSC[C@@H](C(=O)N[C@@H](CCN)C(=O)NCCCCCCCCCCCCC(=O)O)NC1=O [Example 2638] ({CH2CO}-Y(Carboxymethyl)Y(Carboxymethyl)D[Phe(3-CF3)][Phe(4-COOH)][Bip]R[NMeA][dL][Dab][Cha][Val(3-OH)]K(Ac)C[Dab]-{NH(CH2)12COOH}; thioether N-14),8.04
2,CC(=O)NCCCC[C@@H]1NC(=O)[C@H](C(C)(C)O)NC(=O)[C@H](CC2CCCCC2)NC(=O)[C@H](CCN)NC(=O)[C@@H](CC(C)C)NC(=O)[C@H](C)N(C)C(=O)[C@H](CCC(=O)O)NC(=O)[C@H](Cc2ccc(-c3ccccc3)cc2)NC(=O)[C@H](Cc2ccc(C(=O)O)cc2)NC(=O)[C@H](Cc2cccc(C(F)(F)F)c2)NC(=O)[C@H](CC(=O)O)NC(=O)[C@H](Cc2ccc(OCC(=O)O)cc2)NC(=O)[C@H](Cc2ccc(OCC(=O)O)cc2)NC(=O)CSC[C@@H](C(=O)N[C@@H](CCN)C(=O)NCCOCCOCC(=O)NCCCCCCCCCCCCC(=O)O)NC1=O [Example 2640] ({CH2CO}-Y(Carboxymethyl)Y(Carboxymethyl)D[Phe(3-CF3)][Phe(4-COOH)][Bip]E[NMeA][dL][Dab][Cha][Val(3-OH)]K(Ac)C[Dab][AEEA]-{NH(CH2)12COOH}; thioether N-14),7.40
3,Cc1cccc(C[C@@H]2NC(=O)[C@H](CC(=O)O)NC(=O)[C@H](Cc3ccc(OCC(=O)O)cc3)NC(=O)[C@H](C)NC(=O)CSC[C@@H](C(=O)N[C@@H](CCN)C(=O)NCCCCCCCCCCCCC(=O)O)NC(=O)[C@H](Cc3cnc[nH]3)NC(=O)[C@H](C(C)(C)O)NC(=O)[C@H](CC3CCCCC3)NC(=O)[C@H](CCN)NC(=O)[C@@H](CC(C)C)NC(=O)[C@H](C)N(C)C(=O)[C@H](CCCNC(=N)N)NC(=O)[C@H](Cc3ccc(-c4ccccc4)cc3)NC(=O)[C@H](Cc3ccc(O)cc3)NC2=O)c1 [Example 2642] ({CH2CO}-AY(Carboxymethyl)D[Phe(3-Me)]Y[Bip]R[NMeA][dL][Dab][Cha][Val(3-OH)]HC[Dab]-{NH(CH2)12COOH}; thioether N-14),7.13
4,CC(C)C[C@H]1NC(=O)[C@H](C)N(C)C(=O)[C@H](CCCNC(=N)N)NC(=O)[C@H](Cc2ccc(-c3ccccc3)cc2)NC(=O)[C@H](Cc2ccc(C(=O)O)cc2)NC(=O)[C@H](Cc2cccc(C(F)(F)F)c2)NC(=O)[C@H](CC(=O)O)NC(=O)[C@H](Cc2ccc(OCC(=O)O)cc2)NC(=O)[C@H](C(C)O)NC(=O)CSC[C@@H](C(=O)N[C@H](CC(N)=O)C(=O)NCCCCCCCCCCCCC(=O)O)NC(=O)[C@H](CO)NC(=O)[C@H](C(C)(C)O)NC(=O)[C@H](CC2CCCCC2)NC(=O)[C@H](CCN)NC1=O (stereo partly drawn) [Example 2645] ({CH2CO}-[Thr(3ξ)]Y(Carboxymethyl)D[Phe(3-CF3)][Phe(4-COOH)][Bip]R[NMeA][dL][Dab][Cha][Val(3-OH)]SC[dN]-{NH(CH2)12COOH}; thioether N-14),6.94
5,CC(=O)NCCCC[C@@H]1NC(=O)[C@H](C(C)(C)O)NC(=O)[C@H](CC2CCCCC2)NC(=O)[C@H](CCN)NC(=O)[C@@H](CC(C)C)NC(=O)[C@H](C)N(C)C(=O)[C@H](CCC(N)=O)NC(=O)[C@H](Cc2ccc(-c3ccccc3)cc2)NC(=O)[C@H](Cc2ccc(C(=O)O)cc2)NC(=O)[C@H](Cc2cccc(C(F)(F)F)c2)NC(=O)[C@H](CC(=O)O)NC(=O)[C@H](Cc2ccc(OCC(=O)O)cc2)NC(=O)[C@H](Cc2ccc(OCC(=O)O)cc2)NC(=O)CSC[C@@H](C(=O)N[C@@H](CCN)C(=O)NCCOCCOCC(=O)N[C@@H](CCC(=O)NCCOCCOCC(=O)NCCCCCCCCCCCCCCC(=O)O)C(=O)O)NC1=O [Example 2652] ({CH2CO}-Y(Carboxymethyl)Y(Carboxymethyl)D[Phe(3-CF3)][Phe(4-COOH)][Bip]Q[NMeA][dL][Dab][Cha][Val(3-OH)]K(Ac)C[Dab][AEEA][γGlu][AEEA]-{NH(CH2)14COOH}; thioether N-14),7.33

# More lines, in order of rising pIC50, values ahead:
row,pIC50,Compound
1,6.79,CC(=O)NCCCC[C@@H]1NC(=O)[C@H](C(C)(C)O)NC(=O)[C@H](CC2CCCCC2)NC(=O)[C@H](CCN)NC(=O)[C@@H](CC(C)C)NC(=O)[C@H](C)N(C)C(=O)[C@H](CCC(N)=O)NC(=O)[C@H](Cc2ccc(-c3ccccc3)cc2)NC(=O)[C@H](Cc2ccc(C(=O)O)cc2)NC(=O)[C@H](Cc2cccc(C(F)(F)F)c2)NC(=O)[C@H](CC(=O)O)NC(=O)[C@H](Cc2ccc(OCC(=O)O)cc2)NC(=O)[C@H](Cc2ccc(OCC(=O)O)cc2)NC(=O)CSC[C@@H](C(=O)N[C@H](CCN)C(=O)NCCOCCOCC(=O)N[C@@H](CO)C(=O)NCCOCCOCC(=O)N[C@@H](CCC(=O)NCCCCCCCCCCCCCCC(=O)O)C(=O)O)NC1=O [Example 2650] ({CH2CO}-Y(Carboxymethyl)Y(Carboxymethyl)D[Phe(3-CF3)][Phe(4-COOH)][Bip]Q[NMeA][dL][Dab][Cha][Val(3-OH)]K(Ac)C[dDab][AEEA]S[AEEA]E(NH(CH2)14COOH)-OH; thioether N-14)
2,7.40,Cc1cccc(C[C@@H]2NC(=O)[C@H](CC(=O)O)NC(=O)[C@H](Cc3ccc(C(=O)O)cc3)NC(=O)[C@H](C(C)O)NC(=O)CSCC(C(=O)N[C@@H](CCN)C(=O)NCCCCCCCCCCCCC(=O)O)NC(=O)[C@H](CO)NC(=O)[C@H](C(C)(C)O)NC(=O)[C@H](CC3CCCCC3)NC(=O)[C@H](CCN)NC(=O)[C@@H](CC(C)C)NC(=O)[C@H](C)N(C)C(=O)[C@H](CCCNC(=N)N)NC(=O)[C@H](Cc3ccc(-c4ccccc4)cc3)NC(=O)[C@H](Cc3ccc(O)cc3)NC2=O)c1 (stereo partly drawn) [Example 2643] ({CH2CO}-[Thr(3ξ)][Phe(4-COOH)]D[Phe(3-Me)]Y[Bip]R[NMeA][dL][Dab][Cha][Val(3-OH)]S[ξC][Dab]-{NH(CH2)12COOH}; thioether N-14)
3,7.41,CCCCCCCCCCCCCCCCNC(=O)CC[C@H](NC(=O)COCCOCCNC(=O)[C@H](CCN)NC(=O)[C@@H]1CSCC(=O)C[C@@H](Cc2ccc(OCC(=O)O)cc2)C(=O)N[C@@H](Cc2ccc(OCC(=O)O)cc2)C(=O)N[C@@H](CC(=O)O)C(=O)N[C@@H](Cc2cccc(C(F)(F)F)c2)C(=O)N[C@@H](Cc2ccc(C(=O)O)cc2)C(=O)N[C@@H](Cc2ccc(-c3ccccc3)cc2)C(=O)N[C@@H](CCC(N)=O)C(=O)N(C)[C@@H](C)C(=O)N[C@H](CC(C)C)C(=O)N[C@@H](CCN)C(=O)N[C@@H](CC2CCCCC2)C(=O)N[C@@H](C(C)(C)O)C(=O)N[C@@H](CCCCNC(C)=O)C(=O)N1)C(=O)O [Example 2641] (Y(Carboxymethyl)D[Phe(3-CF3)][Phe(4-COOH)][Bip]Q[NMeA][dL][Dab][Cha][Val(3-OH)]K(Ac)C[Dab][AEEA]E(NHhexadecyl)-OH; linker N-13 via X10)
4,7.62,CC(=O)NCCCC[C@@H]1NC(=O)[C@H](C(C)(C)O)NC(=O)[C@H](CC2CCCCC2)NC(=O)[C@H](CCN)NC(=O)[C@@H](CC(C)C)NC(=O)[C@H](C)N(C)C(=O)[C@H](CCC(N)=O)NC(=O)[C@H](Cc2ccc(-c3ccccc3)cc2)NC(=O)[C@H](Cc2ccc(C(=O)O)cc2)NC(=O)[C@H](Cc2cccc(C(F)(F)F)c2)NC(=O)[C@H](CC(=O)O)NC(=O)[C@H](Cc2ccc(OCC(=O)O)cc2)NC(=O)[C@H](Cc2ccc(OCC(=O)O)cc2)CC(=O)CSC[C@@H](C(=O)N[C@@H](CCN)C(=O)NCCOCCOCC(=O)N[C@@H](CC(=O)NCCCCCCCCCCCCCCC(N)=O)C(=O)O)NC1=O [Example 2637] (Y(Carboxymethyl)D[Phe(3-CF3)][Phe(4-COOH)][Bip]Q[NMeA][dL][Dab][Cha][Val(3-OH)]K(Ac)C[Dab][AEEA]D(X9)-OH; linker N-13 via X10)
5,7.77,CC(=O)NCCCC[C@@H]1NC(=O)[C@H](C(C)(C)O)NC(=O)[C@H](CC2CCCCC2)NC(=O)[C@H](CCN)NC(=O)[C@@H](CC(C)C)NC(=O)[C@H](C)N(C)C(=O)[C@H](CCCNC(=N)N)NC(=O)[C@H](Cc2ccc(-c3ccccc3)cc2)NC(=O)[C@H](Cc2ccc(C(=O)O)cc2)NC(=O)[C@H](Cc2cccc(C(F)(F)F)c2)NC(=O)[C@H](CC(=O)O)NC(=O)[C@H](Cc2ccc(OCC(=O)O)cc2)NC(=O)[C@H](Cc2ccc(OCC(=O)O)cc2)NC(=O)CSC[C@@H](C(=O)N[C@@H](CCN)C(=O)NCCOCCOCC(=O)NCCCCCCCCCCCCC(=O)O)NC1=O [Example 2639] ({CH2CO}-Y(Carboxymethyl)Y(Carboxymethyl)D[Phe(3-CF3)][Phe(4-COOH)][Bip]R[NMeA][dL][Dab][Cha][Val(3-OH)]K(Ac)C[Dab][AEEA]-{NH(CH2)12COOH}; thioether N-14)
6,7.78,Cc1cccc(C[C@@H]2NC(=O)[C@H](CC(=O)O)NC(=O)[C@H](Cc3ccc(C(=O)O)cc3)NC(=O)[C@H](C(C)O)NC(=O)CSC[C@@H](C(=O)N[C@@H](CCN)C(=O)NCCCCCCCCCCCCC(=O)O)NC(=O)[C@H](CO)NC(=O)[C@H](C(C)(C)O)NC(=O)[C@H](CC3CCCCC3)NC(=O)[C@H](CCN)NC(=O)[C@@H](CC(C)C)NC(=O)[C@H](C)N(C)C(=O)[C@H](CCCNC(=N)N)NC(=O)[C@H](Cc3ccc(-c4ccccc4)cc3)NC(=O)[C@H](Cc3ccc(C(=O)O)cc3)NC2=O)c1 (stereo partly drawn) [Example 2644] ({CH2CO}-[Thr(3ξ)][Phe(4-COOH)]D[Phe(3-Me)][Phe(4-COOH)][Bip]R[NMeA][dL][Dab][Cha][Val(3-OH)]SC[Dab]-{NH(CH2)12COOH}; thioether N-14)
